Data from US9139596B2, “Cyclic prodrugs of duocarmycin analogs” (The Scripps Research Institute, priority 2012, dated 2015).
Like-named read-outs stand apart in the source and are kept apart here.

Legend:
[1] = system: L1210 murine leukemia cell line; assay: In vitro cytotoxic activity (cell growth inhibition), L1210; format: cell-based
Procedure: In Vitro Cytotoxic Activity. Both (+)- and ent-(−)-6 and their N-Boc precursors 16 were tested for cell growth inhibition in a cytotoxic assay with the L1210 murine leukemia cell line.

[2] = system: L1210 murine leukemia cells implanted ip; assay: In vivo antitumor activity (L1210, ip); conditions: for Surviving Mice: live animals after 250 days
Procedure: Therefore, the in vivo antitumor activity of (+)-6 was assessed alongside seco-CBI-indole2 (4) in an antitumor model consisting of L1210 murine leukemia cells implanted ip into […] which has been used historically as an initial antitumor model for comparisons in this class.^11,12,14,15 A dose range of 300 to 9000 μg/kg for prodrug (+)-6 (scaled to its in vitro cytotoxic activity IC50) and 60 to 500 μg/kg for seco-CBI-indole2 (4) and a dosing schedule (administered three times ip on days 1, 5, and 9) for both compounds was employed.
B6D2F1 mice were injected intraperitoneal (i.p.) with syngeneic L1210 cells (1×10^6) on day 0. Ten mice were randomly assigned to control vehicle or treatment groups for compounds (+)-4 and (+)-6 at doses of 60, 100, 250, and 500 μg/kg/inj for (+)-4 or 300, 1000, 3000, and 9000 μg/kg/inj for (+)-6. Compounds (+)-4 and (+)-6 were formulated in 100% DMSO, and injected i.p. on study days 1, 5, and 9. Following injection of tumor cells, animals were monitored daily and weighed two times per week. Percent survival (T/C) for treated and control groups were determined by dividing the total survival days for each treatment group by the total survival days for the control group and multiplying ×100. All animal studies were carried out in the animal facilities of The University of Kansas Medical Center with strict adherence to the guidelines of the IACUC Animal Welfare Committee of KUMC (IACUC approval #2009-1837).

[3] = system: L1210 murine leukemia cells implanted ip; conditions: previously established; cited from earlier work
[4] = Chemical reactivity of N-Boc-prodrug 16 under acidic, basic and nucleophilic conditions; format: physicochemical
Procedure: In order to determine the ability of the free drug to be released under physiological conditions, the chemical reactivity of N-Boc-prodrug 16 was assessed under a variety of acidic, basic, and nucleophilic conditions.

Solvolysis of 21 = format: physicochemical; conditions: 25° C., UV 255 nm; for half-life: CH3OH / aqueous citrate-phosphate buffer, read-out: solvolysis t1/2 (converted); for solvolysis rate constant k: CH3OH
Procedure: Compound 21 was dissolved in CH3OH (1.5 mL). […] After mixing, the solvolysis solutions were stoppered and kept at 25° C. in the dark. The UV spectrum of the solutions was measured 3-4 times in the first two days and once a day for 2-4 weeks. The UV monitoring was continued until no further change was detectable. The long-wavelength absorption at 380 nm and short-wavelength absorption at 255 nm were monitored. The solvolysis rate constant and half-life were calculated from the data recorded at the short wavelength (255 nm) from the least square treatment of the slopes of plots of time versus ln [(AFinal−Ainitial)/(Afinal−A)].

[5] = calf serum; cited from earlier work
[6] = system: L1210 murine leukemia cell line; conditions: L1210, natural enantiomer, literature ref 9; cited from earlier work
[7] = human, plasma; cited from earlier work
[8] = Mus musculus, L1210, read-out: IC50 L1210 natural, natural enantiomer, Table 2
[9] = Mus musculus, L1210, read-out: IC50 L1210 unnatural, unnatural enantiomer, Table 2
[10] = Mus musculus, L1210, read-out: In vitro IC50 L1210 natural, natural (S)-enantiomer, Table 4
[11] = Mus musculus, L1210, read-out: In vitro IC50 L1210 unnatural, unnatural (R)-enantiomer, Table 4
[12] = 60 μg/kg i.p. on days 1, 5, and 9
[13] = 100 μg/kg i.p. on days 1, 5, and 9
[14] = 250 μg/kg i.p. on days 1, 5, and 9
[15] = 500 μg/kg i.p. on days 1, 5, and 9
[16] = pH 1 buffer (: 0.2 M Na2HPO4: H2O 4:1:20)
[17] = pH 2 buffer (1.0 M citric acid: 0.2 M Na2HPO4: H2O 4:1:20)
[18] = natural (S)-enantiomer, Table 4

**Q.** With `COC(=O)c1cc2c([nH]1)C(=O)C=C1N(C(=O)c3cc4cc(OC)c(OC)c(OC)c4[nH]3)CC3CC123` (stereo not drawn) [Compound 1, Duocarmycin SA, reference compound] as the compound, how does the IC50 [1, 8] read?
**A.** Its IC50 is 0.01 nM.

**Q.** And the IC50 [1, 9]?
**A.** The IC50 was 0.1 nM.

**Q.** And the IC50 [1, 10]?
**A.** Its IC50 is 0.01 nM.

**Q.** And the IC50 [1, 11]?
**A.** Its IC50 is 0.1 nM.

**Q.** With `COc1c(O)c2c(c3cc(C(=O)N4CCc5c4c(O)c(OC)c4[nH]c(C(=O)N6CC7CC78C6=CC(=O)c6[nH]cc(C)c68)cc54)[nH]c13)CCN2C(N)=O` (stereo not drawn) [Compound 2, CC-1065, reference compound] as the compound, how does the IC50 ([1]; Mus musculus, L1210, natural (S)-enantiomer, Table 4, read-out: In vitro IC50 L1210 natural) read?
**A.** Its IC50 is 0.02 nM.

**Q.** What about the IC50 ([1]; Mus musculus, L1210, natural enantiomer, Table 2, read-out: IC50 L1210 natural) of the same compound?
**A.** Its IC50 is 0.02 nM.

**Q.** What about the IC50 ([1]; Mus musculus, L1210, unnatural (R)-enantiomer, Table 4, read-out: In vitro IC50 L1210 unnatural) of the same compound?
**A.** Its IC50 is 0.02 nM.

**Q.** And the IC50 ([1]; Mus musculus, L1210, unnatural enantiomer, Table 2, read-out: IC50 L1210 unnatural)?
**A.** Its IC50 is 0.02 nM.

**Q.** For `O=C(Nc1ccc2[nH]c(C(=O)N3C[C@@H](CCl)c4c3cc(O)c3ccccc43)cc2c1)c1cc2ccccc2[nH]1` [Compound 4, seco-CBI-indole2, reference compound], which “MSP (Mean Survival Period)” value [2, 12] is on record?
**A.** Its value is over 34.7 days.

**Q.** And the “T/C (Treated/Control MSP x 100)” value [2, 12]?
**A.** The value was over 197.

**Q.** What about the “Surviving Mice” value [2, 12] of the same compound?
**A.** The value was 1/10.

**Q.** What about the “MSP (Mean Survival Period)” value [2, 13] of the same compound?
**A.** The value was 6.4 days.

**Q.** And the “T/C (Treated/Control MSP x 100)” value [2, 13]?
**A.** Its value is 36.

**Q.** And the “Surviving Mice” value [2, 13]?
**A.** The value was 0/10.

**Q.** And the “MSP (Mean Survival Period)” value [2, 14]?
**A.** The value was 3.7 days.

**Q.** What about the “T/C (Treated/Control MSP x 100)” value [2, 14] of the same compound?
**A.** The value was 21.

**Q.** What about the “Surviving Mice” value [2, 14] of the same compound?
**A.** The value was 0/10.

**Q.** What about the “MSP (Mean Survival Period)” value [2, 15] of the same compound?
**A.** Its value is 3.0 days.

**Q.** What about the “T/C (Treated/Control MSP x 100)” value [2, 15] of the same compound?
**A.** The value was 17.

**Q.** And the “Surviving Mice” value [2, 15]?
**A.** Its value is 0/10.

**Q.** What about the “toxicity leading to premature death of the animals” value ([2]; doses of 100-500 μg/kg i.p. on days 1, 5, and 9) of the same compound?
**A.** Its value is “toxic”.

**Q.** And the optimal dose range [3]?
**A.** Its optimal dose range is 0.06 to 0.1 mg/kg.

**Q.** What about the IC50 ([1]; L1210, free drug, natural enantiomer, read-out: IC50) of the same compound?
**A.** Its IC50 is 0.03 nM.

**Q.** And the IC50 ([1]; natural (S)-enantiomer, Table 4, read-out: In vitro IC50 L1210 natural)?
**A.** Its IC50 is 0.03 nM.

**Q.** And the IC50 ([1]; natural enantiomer, Table 2, read-out: IC50 L1210 natural)?
**A.** Its IC50 is 0.03 nM.

**Q.** And the IC50 ([1]; unnatural (R)-enantiomer, Table 4, read-out: In vitro IC50 L1210 unnatural)?
**A.** Its IC50 is 0.9 nM.

**Q.** What about the IC50 ([1]; unnatural enantiomer, Table 2, read-out: IC50 L1210 unnatural) of the same compound?
**A.** The IC50 was 0.9 nM.

**Q.** Which “stability of the cyclic carbamate to hydrolysis under acidic conditions” value ([4]; 1:1 TFA:CH2Cl2, 4 N HCl in EtOAc, 48 h at 23° C., Boc group cleaved) does the source give for `CC(C)(C)OC(=O)N1C[C@@H](CCl)c2c1cc1c3c(cccc23)NC(=O)O1` [Compound 16, tert-Butyl 10-(Chloromethyl)-5-oxo-9,10-dihydro-4H-pyrrolo[3′,2′:5,6]naphtho[1,8-de][1,3]oxazine-8(5H)-carboxylate] here?
**A.** Its value is “stable”.

**Q.** And the “stability to BnNH2” value ([4]; BnNH2 (100 equiv) in MeOH, 24 h)?
**A.** Its value is “rapidly cleaved”.

**Q.** And the “stability to BnNH2” value ([4]; BnNH2 in THF)?
**A.** The value was “stable”.

**Q.** What about the “stability in the presence of nucleophiles BnSH and BnOH” value ([4]; BnSH and BnOH (100 equiv) in MeOH and THF at 23° C. for 48 h) of the same compound?
**A.** The value was “completely stable”.

**Q.** And the “fold less active than N-Boc-CBI” value ([1]; L1210)?
**A.** The value was 50-100 fold.

**Q.** And the IC50 [1, 8]?
**A.** The IC50 was 4900 nM.

**Q.** And the IC50 [1, 9]?
**A.** Its IC50 is 5800 nM.

**Q.** With `Nc1cccc2c1C(=O)C=C1N(C(=O)c3cc4cc(NC(=O)c5cc6ccccc6[nH]5)ccc4[nH]3)CC3CC123` (stereo not drawn) [Compound 20, N-(2-(5-Amino-4-oxo-1,2,9,9a-tetrahydrocyclopropa[c]benzo[e]indole-2-carbonyl)-1H-indol-5-yl)-1H-indole-2-carboxamide] as the compound, how does the “fold less active than 4 (active enantiomer)” value ([1]; L1210, inferred from the racemate IC50) read?
**A.** The value was 3-4 fold.

**Q.** What about the IC50 ([1]; L1210, racemic parent drug, read-out: IC50) of the same compound?
**A.** Its IC50 is 0.21 nM.

**Q.** For `CC(C)(C)OC(=O)N1CC2CC23C1=CC(=O)c1c(N)cccc13` (stereo not drawn) [Compound 21, N-tert-Butyloxycarbonyl-5-amino-1,2,9,9a-tetrahydrocyclopropa[c]benzo[e]indole-4-one], which half-life (Solvolysis of 21; [16]) is on record?
**A.** Its half-life is 8.52 h.

**Q.** And the half-life (Solvolysis of 21; [17])?
**A.** The half-life was 40.3 h.

**Q.** And the “solvolysis rate constant k” value (Solvolysis of 21; [16])?
**A.** The value was 1.5e-05 s⁻¹.

**Q.** And the “solvolysis rate constant k” value (Solvolysis of 21; [17])?
**A.** Its value is 5e-06 s⁻¹.

**Q.** Which results are given for `N=C1Nc2cccc3c4c(cc(c23)O1)N(C(=O)c1cc2cc(NC(=O)c3cc5ccccc5[nH]3)ccc2[nH]1)C[C@H]4CCl` [Compound 24, (S)—N-(2-(10-(chloromethyl)-5-imino-5,8,9,10-tetrahydro-4H-pyrrolo[3′,2′,5,6]naphtho[1,8-de][1,3]oxazine-8-carbonyl)-1H-indol-5-yl)-1H-indole-2-carboxamide]?
**A.** IC50 [1, 10]: 0.5 nM; IC50 [1, 11]: 64 nM; In vitro IC50 L1210 natural [1, 18]: in the nanomolar range

**Q.** With `O=C(Nc1ccc2[nH]c(C(=O)N3C[C@@H](CCl)c4c3cc3c5c(cccc45)NC(=S)O3)cc2c1)c1cc2ccccc2[nH]1` [Compound 25, (S)—N-(2-(10-(chloromethyl)-5-thioxo-5,8,9,10-tetrahydro-4H-pyrrolo[3′,2′,5,6]naphtho[1,8-de][1,3]oxazine-8-carbonyl)-1H-indol-5-yl)-1H-indole-2-carboxamide] as the compound, how does the IC50 [1, 10] read?
**A.** The IC50 was 0.29 nM.

**Q.** What about the IC50 [1, 11] of the same compound?
**A.** Its IC50 is 62 nM.

**Q.** And the “In vitro IC50 L1210 natural” value [1, 18]?
**A.** Its value is “in the nanomolar range”.

**Q.** What does the source list for `O=C(Nc1ccc2[nH]c(C(=O)N3C[C@@H](CCl)c4c3cc3c5c(cccc45)N=C(SCCN4C(=O)c5ccccc5C4=O)O3)cc2c1)c1cc2ccccc2[nH]1` [Compound 29, (S)—N-(2-(10-(chloromethyl)-5-((2-(1,3-dioxoisoindolin-2-yl)ethyl)thio)-9,10-dihydro-8H-pyrrolo[3′,2′:5,6]naphtho[1,8-de][1,3]oxazine-8-carbonyl)-1H-indol-5-yl)-1H-indole-2-carboxamide]?
**A.** IC50 [1, 10]: < 100 nM; IC50 ([1]; read-out: In vitro IC50 L1210 natural, natural (S)-enantiomer, Table 4): 83.6 nM

**Q.** Which t1/2 [5] does the source give for `COC(=O)c1c(C)[nH]c2c(OC(=O)N3CCN(C)CC3)cc3c(c12)[C@H](CBr)CN3C(=O)c1cc2cc(OC)c(OC)c(OC)c2[nH]1` [KW-2189] here?
**A.** The t1/2 was 20 h.

**Q.** For `CC(C)(C)OC(=O)N1CC2CC23C1=CC(=O)c1ccccc13` (stereo not drawn) [N-Boc-CBI], which IC50 [6] is on record?
**A.** The IC50 was 80 nM.

**Q.** Which t1/2 [7] does the source give for `CCN(CC)c1ccc2cc(C(=O)Nc3ccc4[nH]c(C(=O)N5C[C@@H](CCl)c6c5cc(OC(=O)Nc5ccccc5)c5[nH]cc(C)c65)cc4c3)oc2c1` [carzelesin] here?
**A.** The t1/2 was under 1 h.
